Measurements published in ChEMBL document CHEMBL3988442, “University of Dundee, Small-Polar-MMV Screening Library” (2021).

Key:
[1] = microbe, parasite or virus in culture; settings: Mycobacterium tuberculosis, 72 h, read-out: pIC50 (converted)
[2] = microbe, parasite or virus in culture; settings: Mycobacterium tuberculosis, 96 h, read-out: pIC50 (converted)

Row | Compound | IC50 [1] | IC50 [2]
1 | CCN(C)S(=O)(=O)N(CC)CC(O)c1ccc(C)cc1 (centres undefined) | 334 µM | 293 µM
2 | Cc1cccc(-c2nnc(C(C)N3CCn4c(C)nnc4C3)o2)c1 (centres undefined) | > 50.1 µM | > 50.1 µM
3 | Cn1cc(CC(=O)Nc2ccc(I)cn2)cn1 | 283 µM | > 501 µM
4 | COc1ccc(S(=O)(=O)Nc2cccc(CN)c2)cc1 | 162 µM | > 501 µM
5 | CN(CC(=O)N1CCOCC1)Cc1cc(Br)cs1 | 114 µM | 55.2 µM
6 | COc1ccccc1CNc1ccc(C#N)cn1 | 194 µM | 279 µM
7 | COCC(=O)NCCc1cc(Cl)c2c(c1)OCCO2 | 216 µM | 176 µM
8 | COCc1nn(Cc2csc(C(C)C)n2)c(=O)o1 | 14.9 µM | 22.5 µM
9 | Cc1ccc(F)c(S(=O)(=O)N2C[C@H](C3CC3)[C@@H](N)C2)c1 | > 501 µM | > 501 µM
10 | CC(C)(C)c1cnc(CN2CCOCC2C(N)=O)o1 (centres undefined) | 158 µM | > 501 µM
11 | COc1c(F)cc(CN2CC[C@@H](N)[C@H](O)C2)cc1Cl | 279 µM | > 501 µM
12 | O=S(=O)(CCN1CCCC(O)C1)c1ccc(Br)cc1 (centres undefined) | 359 µM | 174 µM
13 | Cc1cnn(CCNCc2ccc3c(c2)OCCO3)c1 | 127 µM | 211 µM
14 | CC(C)Sc1nc(-c2ccccn2)no1 | 320 µM | 312 µM
15 | CC(C)N(CCNc1nc(C2CCCC2)nc2c1cnn2C)C(C)C | 20.6 µM | 18.7 µM
16 | O=C1C=CC(=O)N1c1ccccc1OC(F)F | 109 µM | 143 µM
17 | CNc1cc(C)nc(NCc2cc(C)cc3c(C)c(C)[nH]c23)n1 | 23.6 µM | 35.8 µM
18 | CCCn1nnc(NCc2ccc(OC)cc2)n1 | 115 µM | 25.1 µM
19 | O=C(NCCSC(F)(F)F)Nc1cccc2[nH]nnc12 | 286 µM | 265 µM
20 | FC(F)(F)c1cccc(NCc2cccnc2)n1 | 85.5 µM | 275 µM
21 | O=C(CS(=O)(=O)Cc1cccc(Cl)c1)NCC1CC1 | 83.2 µM | 263 µM
22 | Cc1ccc(C(=O)N2CC(Oc3ccccc3C)C2)s1 | 8.82 µM | 10.7 µM
23 | NCCCc1ccccn1 | > 501 µM | > 501 µM
24 | COc1ccc(C(=O)NCCCC2(C3OCCO3)CCOCC2)cc1 | > 50.1 µM | > 50.1 µM
25 | Fc1cccc(OC2CCN(CCn3cc4ccccc4n3)CC2)c1 | > 50.1 µM | 26.1 µM
26 | Cc1c(C(=O)Nc2ccc3c(c2)OCCO3)cnn1C | > 501 µM | > 501 µM

Row | Compound | IC50 [1] | IC50 [2]
27 | CCOc1cccc(CSc2nc(=O)ccn2CC)n1 | 460 µM | > 501 µM
28 | CCOc1ccc(C(=O)CCN(C)C)cc1 | 160 µM | 191 µM
29 | N#Cc1cc(Cl)ccc1N1CCN(C(=O)C2CCC2)CC1 | > 50.1 µM | > 50.1 µM
30 | O=C(NCCSc1ccccn1)C1CCCCO1 (centres undefined) | 476 µM | > 501 µM
31 | CC(=O)NCCCNCc1cccc(C#N)c1 | > 501 µM | > 501 µM
32 | O=C(C1CC1)N1CCN(Cc2cccc(F)c2)CC1 | > 501 µM | 210 µM
33 | O=C(CN1CCN(c2ccccc2)CC1)N1CCCC1 | > 501 µM | > 501 µM
34 | NCCCc1nc2ccccc2o1 | 211 µM | 255 µM
35 | CC(C1CC1)N(C)Cc1nnc(-c2ccc(Br)s2)o1 (centres undefined) | 2.95 µM | 42.1 µM
36 | c1ccc(-c2cc(CN3C[C@@H]4CC[C@H](C3)N(CC3CC3)C4)on2)cc1 | 24.3 µM | 24.8 µM
37 | NC(=O)NC(=O)CCS(=O)(=O)c1cc(F)ccc1F | 70.1 µM | 139 µM
38 | CC(C)c1cc(C(=O)NCCCN(C)C)nc(N2CCCC2)n1 | 30 µM | 31.2 µM
39 | O=C(CNc1cccc(CO)c1)NCc1ccc(Cl)s1 | 134 µM | > 501 µM
40 | Nc1cc(C2CCN(C(=O)Cc3ccsc3)CC2)no1 | 264 µM | > 501 µM
41 | Cc1nc(C2CN(Cc3ccc(F)cc3Br)CCO2)no1 (centres undefined) | 33 µM | 11.2 µM
42 | O=C(NC1CCc2ccc(F)cc21)c1c[nH]nn1 (centres undefined) | > 501 µM | 399 µM
43 | CNCC(=O)NC1CCN(Cc2ccc(Br)cc2)CC1 | 257 µM | 294 µM
44 | COCCN(C)CCNC(=O)c1ccc(Cl)cc1 | 165 µM | > 501 µM
45 | CCS(=O)(=O)N1CCC(c2nnc(CN3CCCCCC3)n2C)CC1 | > 50.1 µM | > 50.1 µM
46 | CN(Cc1ccc(Br)o1)C(=O)c1nccnc1N | 210 µM | 414 µM
47 | COC(=O)c1ccc(COc2ccccc2CO)o1 | 230 µM | 250 µM
48 | CC(C)n1nccc1NC(=O)NCCc1nc2ccc(F)cc2n1C | > 50.1 µM | > 50.1 µM
49 | CNC(=O)CSCc1nc(-c2ccccc2C)no1 | 134 µM | 156 µM
50 | Nc1cc(-c2c[nH]nc2C2CCCCN2C(=O)C2CCCC2)ccn1 (centres undefined) | > 50.1 µM | > 50.1 µM
51 | CN(C)c1ccc(C(=O)N2CCCC2c2cnn(C)c2)nn1 (centres undefined) | > 50.1 µM | > 50.1 µM
52 | COc1coc(CN2CCCC(CCc3ccc(F)cc3)C2)cc1=O (centres undefined) | > 50.1 µM | 23.1 µM
